Values quoted from earlier work as cited in US10385093B2, “Estrogen receptor imaging agents” (Northeastern University, priority 2012, dated 2019).

Experiments:
[1] = small animal studies
ER = conditions: binding to ER in target tissues
[2] = biological target: T1, steroid hormone binding globulin (SHBG) (Homo sapiens, UniProt P04278)
T1 construct: host or cells: circulating plasma
T1 sequence (P04278 30-402): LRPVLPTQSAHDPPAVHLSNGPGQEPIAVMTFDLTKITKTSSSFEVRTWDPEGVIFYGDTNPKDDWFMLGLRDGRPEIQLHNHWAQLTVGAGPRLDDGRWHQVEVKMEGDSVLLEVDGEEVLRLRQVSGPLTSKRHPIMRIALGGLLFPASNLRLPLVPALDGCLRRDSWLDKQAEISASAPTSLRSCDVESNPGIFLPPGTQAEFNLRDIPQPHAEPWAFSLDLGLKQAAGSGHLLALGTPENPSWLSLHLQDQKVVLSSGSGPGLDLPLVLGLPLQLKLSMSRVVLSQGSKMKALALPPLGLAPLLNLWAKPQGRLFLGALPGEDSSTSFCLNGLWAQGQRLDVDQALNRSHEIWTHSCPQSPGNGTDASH

[3] = plasma of patients
[4] = rats, by 60 minutes after injection

Row | Structure (SMILES) | selectivity uptake ratios compared with [^18F]-ES [1] | relative binding affinity (RBA) (ER) [%] | FES in circulating plasma complexed with SHBG [2] [%] | radioactivity in plasma that is parent FES [3] | circulating radioactivity due to [18F]-FES [4]
1 | CO[C@H]1C[C@]2(C)[C@@H](O)[C@H]([18F])C[C@H]2[C@@H]2CCc3c(ccc(O)c3F)[C@H]21 [4FMFES, 4-Fluoro-11β-methoxy-16α-[^18F]-flouroestradiol] | higher selectivity uptake ratios | – | – | – | –
2 | C[C@]12CC[C@@H]3c4ccc(O)cc4CC[C@H]3[C@@H]1C[C@@H](F)[C@@H]2O [FES, [^18F]-16α-fluoroestradiol] | – | 80 | ≤ 45 | less than 20% | less than 15%
